Columns and labels:
[1] = system: DIGSA; experiment: Post-emergence action at 320 g/ha against DIGSA; format: in vivo, Digitaria sanguinalis; conditions: dosage 320 g/ha, visual rating about 3 weeks after treatment vs untreated controls (100% = plants died)
In short: (§1)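 Greenhouse-grown plants sprayed post-emergence at the one-leaf stage, 2 to 3 weeks after sowing, with WP or EC formulations plus 0.5% additive at 600 l/ha water, at 320 g/ha. Activity rated visually after about 3 weeks versus untreated controls (100% = plants died, 0% = like control).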

[2] = system: AVEFA; experiment: Pre-emergence action at 320 g/ha against AVEFA; format: in vivo; conditions: visual scoring after about 3 weeks vs untreated controls
In short: (§2)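 WP/EC formulations applied pre-emergence to covering soil, water rate 600 l/ha, 0.5% additive. Greenhouse, ~3 weeks. Visual % damage vs untreated (0–100%).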

[3] = system: POLCO; experiment: Pre-emergence action at 320 g/ha against POLCO; format: in vivo, Fallopia convolvulus (Polygonum convolvulus); conditions: visual scoring after about 3 weeks vs untreated controls
In short: as §2

[4] = system: VIOTR; experiment: Pre-emergence action at 320 g/ha against VIOTR; format: in vivo, Viola tricolor; conditions: dosage 320 g/ha
In short: as §2

[5] = system: SETVI; experiment: Post-emergence action at 320 g/ha against SETVI; format: in vivo, Setaria viridis; conditions: visual rating about 3 weeks after treatment vs untreated controls
In short: as §1

[6] = system: DIGSA; experiment: Pre-emergence action at 320 g/ha against DIGSA; format: in vivo, Digitaria sanguinalis; conditions: visual scoring after about 3 weeks vs untreated controls
In short: as §2

[7] = system: VERPE; experiment: Pre-emergence action at 320 g/ha against VERPE; format: in vivo, Veronica persica; conditions: visual scoring after about 3 weeks vs untreated controls
In short: as §2

[8] = system: MATIN; experiment: Pre-emergence action at 320 g/ha against MATIN; format: in vivo, Tripleurospermum inodorum (Matricaria inodora); conditions: visual scoring after about 3 weeks vs untreated controls
In short: as §2

[9] = system: LOLRI; experiment: Pre-emergence action at 320 g/ha against LOLRI; format: in vivo, Lolium rigidum; conditions: visual scoring after about 3 weeks vs untreated controls
In short: as §2

[10] = system: PHBPU; experiment: Post-emergence action at 320 g/ha against PHBPU; format: in vivo; conditions: visual rating about 3 weeks after treatment vs untreated controls
Text: (§3) Accordingly, the compounds of the invention have good herbicidal action against a broad spectrum of weed grasses and broad-leaved weeds and are therefore suitable for controlling unwanted vegetation by the post-emergence method. • b) Seeds of monocotyledonous and dicotyledonous weeds and crop plants are placed in sandy loam in plastic or organic planting pots, covered with soil and cultivated in a greenhouse under controlled growth conditions. 2 to 3 weeks after sowing, the test plants are treated at the one-leaf stage. The compounds of the invention, formulated in the form of wettable powders (WP) or as emulsion concentrates (EC), are then sprayed onto the green parts of the plants as aqueous suspension or emulsion with addition of 0.5% additive at a water application rate of 600 l/ha (converted). After the test plants have been kept in the greenhouse under optimum growth conditions for about 3 weeks, the activity of the preparations is rated visually in comparison to untreated controls. For example, 100% activity=the plants have died, 0% activity=like control plants. Tables 39 to 49 below show the effects of selected compounds of the general formula (I) according to Tables 1 and 2 on various harmful plants and at an application rate corresponding to 320 g/ha, which were obtained by the experimental procedure mentioned above.

[11] = system: AVEFA; experiment: Post-emergence action at 320 g/ha against AVEFA; format: in vivo; conditions: visual rating about 3 weeks after treatment vs untreated controls
In short: as §1

[12] = system: SETVI; experiment: Pre-emergence action at 320 g/ha against SETVI; format: in vivo, Setaria viridis; conditions: visual scoring after about 3 weeks vs untreated controls
In short: as §2

[13] = system: AMARE; experiment: Pre-emergence action at 320 g/ha against AMARE; format: in vivo, Amaranthus retroflexus; conditions: visual scoring after about 3 weeks vs untreated controls
In short: as §2

[14] = system: ALOMY; experiment: Post-emergence action against ALOMY, 320 g/ha; format: in vivo, Alopecurus myosuroides; conditions: dosage 320 g/ha, visual rating about 3 weeks after treatment vs untreated controls (100% = plants died)
In short: as §1

[15] = system: POLCO; experiment: Post-emergence action at 320 g/ha against POLCO; format: in vivo, Fallopia convolvulus (Polygonum convolvulus); conditions: visual rating about 3 weeks after treatment vs untreated controls
Text: as §3

[16] = system: ABUTH; experiment: Post-emergence action at 320 g/ha against ABUTH; format: in vivo, Abutilon theophrasti; conditions: visual rating about 3 weeks after treatment vs untreated controls
Text: as §3

[17] = system: ECHGC; experiment: Pre-emergence action at 320 g/ha against ECHGC; format: in vivo, Echinochloa crus-galli; conditions: visual scoring after about 3 weeks vs untreated controls
In short: as §2

[18] = system: VIOTR; experiment: Post-emergence action at 320 g/ha against VIOTR; format: in vivo, Viola tricolor; conditions: visual rating about 3 weeks after treatment vs untreated controls
Text: as §3

[19] = system: ALOMY; experiment: Pre-emergence action at 320 g/ha against ALOMY; format: in vivo, Alopecurus myosuroides; conditions: scored visually after about 3 weeks vs untreated controls (100% = plants have died)
In short: as §2

[20] = system: ECHCG; experiment: Post-emergence action at 320 g/ha against ECHCG; format: in vivo, Echinochloa crus-galli; conditions: dosage 320 g/ha, visual rating about 3 weeks after treatment vs untreated controls (100% = plants died)
Text: as §3

[21] = system: PHBPU; experiment: Pre-emergence action at 320 g/ha against PHBPU; format: in vivo; conditions: visual scoring after about 3 weeks vs untreated controls
In short: as §2

[22] = system: AMARE; experiment: Post-emergence action at 320 g/ha against AMARE; format: in vivo, Amaranthus retroflexus; conditions: visual rating about 3 weeks after treatment vs untreated controls
Text: as §3

[23] = system: ABUTH; experiment: Pre-emergence action at 320 g/ha against ABUTH; format: in vivo, Abutilon theophrasti; conditions: greenhouse, scored visually after about 3 weeks vs untreated controls, 100% = plants have died, 0% = like control plants
Text: b) Seeds of monocotyledonous and dicotyledonous weed plants and crop plants are placed in plastic or organic planting pots and covered with soil. The compounds of the invention, formulated in the form of wettable powders (WP) or as emulsion concentrates (EC), are then applied onto the surface of the covering soil as aqueous suspension or emulsion with addition of 0.5% additive at a water application rate of 600 l/ha (converted). After the treatment, the pots are placed in a greenhouse and kept under good growth conditions for the trial plants. After about 3 weeks, the effect of the preparations is scored visually in comparison with untreated controls as percentages. For example, 100% activity=the plants have died, 0% activity=like control plants. Tables 13 to 26 below show the effects of selected compounds of the general formula (I) on various harmful plants and at an application rate corresponding to 320 g/ha, which were obtained by the experimental procedure mentioned above.

Row | SMILES | Post-emergence action at 320 g/ha against DIGSA in % [1] [%] | Pre-emergence action against AVEFA in % [2] [%] | Pre-emergence action against POLCO in % [3] [%] | Pre-emergence action against VIOTR in % [4] [%] | Post-emergence action against SETVI in % [5] [%] | Pre-emergence action against DIGSA in % [6] [%] | Pre-emergence action against VERPE in % [7] [%] | Pre-emergence action against MATIN in % [8] [%] | Pre-emergence action against LOLRI in % [9] [%] | Post-emergence action against PHBPU in % [10] [%] | Post-emergence action against AVEFA in % [11] [%] | Pre-emergence action against SETVI in % [12] [%] | Pre-emergence action against AMARE in % [13] [%] | Post-emergence action against ALOMY [14] [%] | Post-emergence action against POLCO in % [15] [%] | Post-emergence action against ABUTH in % [16] [%] | Pre-emergence action against ECHGC in % [17] [%] | Post-emergence action against VIOTR in % [18] [%] | Pre-emergence action at 320 g/ha against ALOMY in % [19] [%] | Post-emergence action at 320 g/ha against ECHCG in % [20] [%] | further results
1 | COC(=O)COc1nn(-c2ccccc2F)c(-c2ccc(F)nc2)c1Br [VII-001] | 90 | 90 | 90 | 100 | 90 | 100 | 100 | 90 | 100 | 90 | 90 | 100 | 100 | 90 | 80 | 80 | 100 | 80 | 100 | 100 | Pre-emergence action against PHBPU in % [21]: 100%; Post-emergence action against AMARE in % [22]: 90%
2 | CCOC(=O)COc1nn(-c2ccccc2F)c(-c2ccc(F)nc2)c1F [VII-034] | 90 | 90 | 90 | 100 | 90 | 100 | 80 |  | 90 | 90 | 90 | 100 | 100 | 90 | 80 | 80 | 90 | 80 | 90 | 90 | Post-emergence action against AMARE in % [22]: 80%
3 | CCOC(=O)[C@@H](C)Oc1nn(-c2ccccc2F)c(-c2cncc(F)c2)c1Br [VII-130] |  | 90 | 100 | 100 |  | 100 | 100 | 100 | 100 |  |  | 100 | 100 |  |  |  | 90 |  | 100 |  | Pre-emergence action at 320 g/ha against ABUTH in % [23]: 90%
4 | C[C@@H](Oc1nn(-c2cc(F)ccc2F)c(-c2cncc(F)c2)c1Br)C(=O)O [VII-137] |  | 90 | 90 | 100 |  |  | 100 | 90 | 100 |  |  | 100 | 100 |  |  |  | 90 |  | 100 |  | Pre-emergence action at 320 g/ha against ABUTH in % [23]: 90%

— patent US12180187B2, “1-phenyl-5-azinylpyrazolyl-3-oxyalkyl acids and their use for controlling unwanted plant growth” (BAYER AKTIENGESELLSCHAFT, priority 2019, dated 2024)
